Test results published in ChEMBL document CHEMBL1147922, “Tetrahydroindazole inhibitors of bacterial type II topoisomerases. Part 2: SAR development and potency against multidrug-resistant strains” (Bioorg Med Chem Lett, 2007).
In brackets after ≈: the same amount, converted by molar mass.

Experiments:
Staphylococcus aureus [1] = test: Antibacterial activity against quinolone susceptible methicillin resistant Staphylococcus aureus OC2878; assay type: functional
Escherichia coli = test: Antibacterial activity against Escherichia coli KL16; assay type: functional
Streptococcus pneumoniae = test: Antibacterial activity against Streptococcus pneumoniae ATCC 49619; assay type: functional
Staphylococcus aureus [2] = test: Antibacterial activity against ciprofloxacin resistant methicillin resistant Staphylococcus aureus OC5273; assay type: functional
Staphylococcus aureus [3] = test: Antibacterial activity against ciprofloxacin resistant methicillin resistant Staphylococcus aureus OC4159; assay type: functional
Staphylococcus aureus [4] = test: Antibacterial activity against Staphylococcus aureus ATCC 13709; assay type: functional
[5] = Inhibition of bacterial DNA topoisomerase 4
Staphylococcus aureus [6] = test: Antibacterial activity against ciprofloxacin resistant methicillin resistant Staphylococcus aureus OC3946; assay type: functional
Staphylococcus aureus [7] = test: Antibacterial activity against ciprofloxacin resistant methicillin resistant Staphylococcus aureus OC4222; assay type: functional
[8] = Inhibition of bacterial DNA gyrase

In the case of `COc1ccc2nccc(-n3cc4c(n3)CCC(NC(=O)c3ccc5c(c3)NC(=O)CS5)C4)c2c1` (stereo not given), the MIC (Staphylococcus aureus [1]) is reported as 0.125 µg/mL (≈ 0.257 µM), the MIC (Escherichia coli) is reported as 4 µg/mL (≈ 8.24 µM) and the MIC (Streptococcus pneumoniae) is reported as 2 µg/mL (≈ 4.12 µM). For the same compound, the MIC (Staphylococcus aureus [2]) was 0.25 µg/mL (≈ 0.515 µM), the MIC (Staphylococcus aureus [3]) was 0.031 µg/mL (≈ 0.0638 µM) and the MIC (Staphylococcus aureus [4]) was 0.25 µg/mL (≈ 0.515 µM). It also gave an IC50 [5] of 0.125 µg/mL (≈ 0.257 µM), an MIC (Staphylococcus aureus [6]) of 0.015 µg/mL (≈ 0.0309 µM) and an MIC (Staphylococcus aureus [7]) of 0.062 µg/mL (≈ 0.128 µM). It also gave an IC50 [8] of 0.12 µg/mL (≈ 0.247 µM).
For `COc1ccc2nccc(-n3cc4c(n3)CCC(NC(=O)c3ccc5c(c3)NC(=O)CS5)C4)c2n1` (stereo not given), the MIC (Staphylococcus aureus [1]) was 0.031 µg/mL (≈ 0.0637 µM), the MIC (Escherichia coli) was greater than 128 µg/mL and the MIC (Streptococcus pneumoniae) was 4 µg/mL (≈ 8.22 µM). It also gave an MIC (Staphylococcus aureus [2]) of 0.062 µg/mL (≈ 0.127 µM), an MIC (Staphylococcus aureus [3]) of 0.5 µg/mL (≈ 1.03 µM) and an MIC (Staphylococcus aureus [4]) of 0.06 µg/mL (≈ 0.123 µM). It also gave an IC50 [5] of 0.25 µg/mL (≈ 0.514 µM), an MIC (Staphylococcus aureus [6]) of 0.007 µg/mL (≈ 0.0144 µM) and an MIC (Staphylococcus aureus [7]) of 0.5 µg/mL (≈ 1.03 µM). It also gave an IC50 [8] of 0.25 µg/mL (≈ 0.514 µM).
Work on `O=C1CSc2ccc(C(=O)NC3CCc4nn(-c5cccc6cccnc56)cc4C3)cc2N1` (stereo not given) yielded an MIC (Staphylococcus aureus [1]) of 0.25 µg/mL (≈ 0.549 µM), an MIC (Escherichia coli) of 16 µg/mL (≈ 35.1 µM) and an MIC (Streptococcus pneumoniae) of 4 µg/mL (≈ 8.78 µM). The MIC (Staphylococcus aureus [2]) was 0.5 µg/mL (≈ 1.1 µM), the MIC (Staphylococcus aureus [3]) was 4 µg/mL (≈ 8.78 µM) and the MIC (Staphylococcus aureus [4]) was 0.25 µg/mL (≈ 0.549 µM). For the same compound, the IC50 [5] was 0.125 µg/mL (≈ 0.274 µM), the MIC (Staphylococcus aureus [6]) was 0.125 µg/mL (≈ 0.274 µM) and the MIC (Staphylococcus aureus [7]) was 4 µg/mL (≈ 8.78 µM). The IC50 [8] was 2 µg/mL (≈ 4.39 µM).
`COc1ccc2nccc(-n3cc4c(n3)CCC(NCc3ccc5c(c3)OCCO5)C4)c2c1` (stereo not given) gave an MIC (Staphylococcus aureus [1]) of 0.5 µg/mL (≈ 1.13 µM), an MIC (Escherichia coli) of 128 µg/mL (≈ 289 µM) and an MIC (Streptococcus pneumoniae) of 1 µg/mL (≈ 2.26 µM). The MIC (Staphylococcus aureus [2]) was 1 µg/mL (≈ 2.26 µM), the MIC (Staphylococcus aureus [3]) was 16 µg/mL (≈ 36.2 µM) and the MIC (Staphylococcus aureus [4]) was 0.5 µg/mL (≈ 1.13 µM). For the same compound, the IC50 [5] was 0.06 µg/mL (≈ 0.136 µM), the MIC (Staphylococcus aureus [6]) was 0.5 µg/mL (≈ 1.13 µM) and the MIC (Staphylococcus aureus [7]) was 16 µg/mL (≈ 36.2 µM). It also gave an IC50 [8] of 2 µg/mL (≈ 4.52 µM).
